Assay results from patent US20250325567A1, “COADMINISTRATION OF POLYC[…] AMINE/AMIDE A[…] ENHANCE EFFICACY AGAINST PAIN” (University of Connecticut, priority 2024, published 2025).
“Also recorded” adds a separate entry of the source.

What was measured:
F-11 (neuronal) cells = assay: Dose dependent cytotoxicity towards F-11 neuronal cells; type: cell-based; conditions: F11 cells, 24 hour incubation; for cytotoxicity: up to 20 μM
Procedure: FIG. 4 Dose dependent cytotoxicity of Dicannabidiol (diCBD) adipate and AM1241 towards F-11 (neuronal) cells after 24 hour incubation.

[1] = system: activated bone marrow macrophages; assay: Anti-inflammatory response, pro-inflammatory marker gene expression; type: cell-based; conditions: for IL-1B gene expression / IL-6 gene expression / Nos2 gene expression / TNF-α gene expression: 20 μM
Source text: FIG. 5 Anti-inflammatory efficacy of Dicannabidiol (diCBD) adipate and AM1241 towards inflamed bone marrow macrophages.
AM1241 was used as comparison due to its commercial availability.

[2] = Degradation study: thermal and UV light; type: physicochemical
Procedure: A degradation study was conducted in two parts: thermal degradation and UV light degradation. In the thermal degradation study, the Dicannabidiol adipate was heated to 175° C. in aerobic and anaerobic conditions and the changes were monitored by 1H NMR spectroscopy. In the UV light exposure study, a sample of Dicannabidiol adipate was kept under environmental conditions and UV light for several days and was constantly monitored by 1H NMR spectroscopy. From the results of the two experiments, it was concluded that the Dicannabidiol adipate is stable against the degradation caused from heat and UV exposure. […] This limits its misuse and abuse. Further, this indicates there will be no need to refrigerate the CBD-adipate dimer drug, and less issues, compared to CBD, with its shipping/handling.

[3] = Solubility study at different pHs; type: physicochemical; conditions: 1 mg in 1 mL of water and ethanol, pH 1 to pH 12
Procedure: A solubility study was conducted on the Dicannabidiol adipate at different pHs. Twelve vials were prepared by placing 1 mg of the dimer in 1 mL of water and ethanol of different pH, from pH 1 to pH 12. […] The hypothesis for the dimer being soluble in basic water is due to the bonding of the base with the phenolic oxygen of the dimer, thus producing the salt and easily solubilizing in water. […] Adipic acid is widely used in food and medicinal applications and is considered compatible and safe in the human body.

rat osteoarthritis model = assay: Rat osteoarthritis model (monoiodo acetate), mechanical allodynia; type: in vivo
Procedure: Briefly, baseline behavioral measurements were quantified prior to induction of osteoarthritis. Monoiodo acetate was used to induce osteoarthritis via intra-articular injection into the rear right knee joint followed 24 hours later by a single intra-articular injection of the designated treatment group (FIG. 9).

Structure (SMILES) | cytotoxicity (F-11 (neuronal) cells) | IL-1B gene expression [1] | IL-6 gene expression [1] | Nos2 gene expression [1] | TNF-α gene expression [1] | cell viability (F-11 (neuronal) cells; 20 μM) | cytotoxicity (F-11 (neuronal) cells; listed as CBD-adipate dimer) | stability against degradation caused from UV exposure ([2]; environmental conditions and UV light for several days, monitored by 1H NMR) | stability against degradation caused from heat ([2]; heated to 175° C., aerobic and anaerobic, monitored by 1H NMR) | degradation into psychoactive molecules such as THC ([2]; thermal) | anti-inflammatory effect in vitro [1] | solubility in acidic conditions ([3]; acidic) | solubility in basic pH ([3]; basic) | pain level after the anesthetic action, versus initial pain (rat osteoarthritis model; after drug is no longer active) | pain free duration (rat osteoarthritis model; rat model of osteoarthritis) [days]
CN1CCCCC1Cn1cc(C(=O)c2cc([N+](=O)[O-])ccc2I)c2ccccc21 (centres unmarked) [AM1241, reference compound] | significantly increased cytotoxicity | significantly downregulate | significantly downregulate | significantly downregulate | Neither of these drugs showed any significant effect | – | – | – | – | – | – | – | – | – | –
C=C(C)[C@@H]1CCC(C)=C[C@H]1c1c(O)cc(CCCCC)cc1OC(=O)CCCCC(=O)Oc1cc(CCCCC)cc(O)c1[C@@H]1C=C(C)CC[C@H]1C(=C)C [Dicannabidiol adipate] | minimal cytotoxicity; also recorded: no cytotoxicity; also recorded: minimal toxicity | significantly downregulate; also recorded: significant reduction | significantly downregulate; also recorded: significant reduction | significantly downregulate; also recorded: significant reduction | Neither of these drugs showed any significant effect | above 80% | minimal dose dependent cell toxicity | stable | stable | does not degrade | potent anti-inflammatory effect | not soluble | solubilizes | – | –
CCCN1CCCC[C@H]1C(=O)Nc1c(C)cccc1C [Ropivacaine] | – | – | – | – | – | – | – | – | – | – | – | – | – | more pain | 2
